The results in this text go back to patent publication US6605598B1, “Chemically synthesized sugar esters for the control of soft-bodied arthropods” (The United States of America as represented by the …, priority 1994, dated 2003).

Data set [1] deals with tobacco aphid, Myrzus Nicotiana Blackman. In words: Spray bioassay against tobacco aphids. The format is in vivo. The settings on record: individual SE groups; 1 mg SE/ml aqueous spray solution; after 24 hours; average of number of tests. How it is done: (§1) Bioassays of the total SE reaction products as well as of the individual groups of SE were conducted using the tobacco aphid, Myrzus Nicotiana Blackman, the greenhouse whitefly, Trialeurodes vaporariorum Westwood, and the sweetpotato whitefly, Bemisia tabaci Gennadius. Aqueous dispersions of sugar ester fractions, obtained from the column chromatographic step or the total reaction SE products were tested generally at a concentration of 1 mg/ml of water. To prepare the sprayable aqueous mixtures, a small amount of methanol (approximately about 20 μl per 10 mg of dried test compound) is added to the dried test compound. This is agitated gently. Then acetone is added to the methanol mixture to yield a concentration of approximately about 0.05 g/ml. This is shaken gently. To obtain a final, sprayable concentration of approximately about 1 mg sucrose ester/ml, about 10 ml of water are added to the mixture. This is then placed into an ultrasonic bath for 20 minutes. The resulting solution is ready to spray. Green-house reared apterous (wingless) aphids, that colonized a green tobacco plant, were removed with a leaf, sprayed, and kept in a closed petri dish. Percent mortality was determined after 24 hours. In a similar manner, bioassays against the green house whitefly or sweetpotato whitefly are conducted by spraying sucrose ester dispersions at 1 mg/ml of water onto whiteflies, trapped on a sticky surface, and determining percent mortality after 2-24 hours. Tables II and III below show the percent mortality of aphids treated by the individual sucrose ester groups and the total SE reaction products.

Data set [2] concerns greenhouse whitefly, Trialeurodes vaporariorum Westwood. In words: Spray bioassay against the greenhouse whitefly. The format is in vivo. The settings on record: group 2 SE, 1.0 mg/ml spray solution, after 24 hours, average of number of tests. As for the experimental part:
as §1

Regarding dinonanoyl sucrose, the “% Mortality” value in data set [1] is on record as 64%; in data set [2] it was 87%.
For didodecanoyl sucrose, the “% Mortality” value was found to be 23% in data set [1] and 100% in data set [2].
Regarding tridecanoyl sucrose, the “% Mortality” value in data set [1] was determined as 15%.
For the molecule tridodecanoyl sucrose, in data set [1], the “% Mortality” value was 15%.
For dihexanoyl sucrose, in data set [2], the “% Mortality” value is reported as 77%.
For the molecule didecanoyl sucrose, the “% Mortality” value was 43% in data set [1] and 100% in data set [2].
As for `CCCCCCCC(=O)OCC1OC(OC2(COC(=O)CCCCCCC)OC(COC(=O)CCCCCCC)C(O)C2O)C(O)C(O)C1O` (single isomer, unassigned) [trioctanoyl sucrose], in data set [1], the “% Mortality” value was 27%.
Consider monononanoyl sucrose, for which the “% Mortality” value in data set [1] came to 16%.
As to monoheptanoyl sucrose, the “% Mortality” value in data set [1] came out at 17%.
Regarding monooctanoyl sucrose, the “% Mortality” value in data set [1] was determined as 11%.
Take diheptanoyl sucrose: the “% Mortality” value in data set [1] was 88%; in data set [2], 100%.
Regarding tridnanoyl sucrose, the “% Mortality” value in data set [1] is listed as 13%.
Still for that read-out and setting: in the case of monododecanoyl sucrose it was 47%; in that of triheptanoyl sucrose, 16%.
Regarding monodecanoyl sucrose, the “% Mortality” value in data set [1] worked out at 47%.
Regarding `CCCCCCCC(=O)OCC1OC(OC2(CO)OC(COC(=O)CCCCCCC)C(O)C2O)C(O)C(O)C1O` (single isomer, unassigned) [dioctanoyl sucrose], in data set [1], the “% Mortality” value is reported as 88%. Besides, in data set [2] (Trialeurodes vaporariorum), the mortality (commonly the percentage killed) at 1000 µg/mL was found to be 100%.
